Measurements: PubChem BioAssay AID1963843 (Molecular Pharmacology Branch, DTP, NCI, 2024)
pIC50: −log10 of the molar value.

Tested on: 616215-338-R-J1-PDC complex spheroid viability
Assay: Anticancer human tumor 616215-338-R-J1-PDC patient-derived colon adenocarcinoma cell line growth inhibition [POLQ]
Settings: for pIC50: curve of first compound; for viability, T/C: stronger effect = lower value
Procedure, shortened: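 Growth inhibition in 3D: complex spheroids (tumor PDC, HUVEC, MSC) treated with POLQ inhibitor combinations; where Cmax unknown, highest tested concentration 10 microM, except SN-38 at 1 microM.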

[1] = second compound 0.0316 µM, first compound 0.0316 µM
[2] = second compound 0.0316 µM, first compound 0.1 µM
[3] = second compound 0.0316 µM, first compound 0.316 µM
[4] = second compound 0.0316 µM, first compound 1 µM
[5] = second compound 0.0316 µM, first compound 3.16 µM
[6] = second compound 0.0316 µM, first compound 10 µM
[7] = second compound 0.1 µM, first compound 0.0316 µM
[8] = second compound 0.1 µM, first compound 0.1 µM
[9] = second compound 0.1 µM, first compound 0.316 µM
[10] = second compound 0.1 µM, first compound 1 µM
[11] = second compound 0.1 µM, first compound 3.16 µM
[12] = second compound 0.1 µM, first compound 10 µM
[13] = second compound 0.316 µM, first compound 0.0316 µM
[14] = second compound 0.316 µM, first compound 0.1 µM
[15] = second compound 0.316 µM, first compound 0.316 µM
[16] = second compound 0.316 µM, first compound 1 µM
[17] = second compound 0.316 µM, first compound 3.16 µM
[18] = second compound 0.316 µM, first compound 10 µM
[19] = second compound 1 µM, first compound 0.0316 µM
[20] = second compound 1 µM, first compound 0.1 µM
[21] = second compound 1 µM, first compound 0.316 µM
[22] = second compound 1 µM, first compound 1 µM
[23] = second compound 1 µM, first compound 3.16 µM
[24] = second compound 1 µM, first compound 10 µM
[25] = second compound 3.16 µM, first compound 0.0316 µM
[26] = second compound 3.16 µM, first compound 0.1 µM
[27] = second compound 3.16 µM, first compound 0.316 µM
[28] = second compound 3.16 µM, first compound 1 µM
[29] = second compound 3.16 µM, first compound 3.16 µM
[30] = second compound 3.16 µM, first compound 10 µM
[31] = second compound 10 µM, first compound 0.0316 µM
[32] = second compound 10 µM, first compound 0.1 µM
[33] = second compound 10 µM, first compound 0.316 µM
[34] = second compound 10 µM, first compound 1 µM
[35] = second compound 10 µM, first compound 3.16 µM
[36] = second compound 10 µM, first compound 10 µM
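Note: spheroids exposed to compounds for one week before readout.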
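Throughout, for viability, T/C: percent viability relative to DMSO vehicle wells taken as 100%.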

Question: What does the source list for CC(=O)O[C@H]1C(=O)[C@@]2(C)[C@H]([C@H](OC(=O)c3ccccc3)[C@]3(O)C[C@H](OC(=O)[C@H](O)[C@@H](NC(=O)c4ccccc4)c4ccccc4)C(C)=C1C3(C)C)[C@]1(OC(C)=O)CO[C@@H]1C[C@@H]2O + Nc1ccc(C#CCN(C(=O)Cc2ncc(C(F)(F)F)cc2C(F)(F)F)c2ccc(F)cc2)nn1?
Answer: pIC50 (second compound 0.0316 µM): > 8.02; pIC50 (second compound 0.1 µM): > 8.02; pIC50 (second compound 0.316 µM): > 8.02; pIC50 (second compound 1 µM): > 8.02; pIC50 (second compound 3.16 µM): > 8.02; pIC50 (second compound 10 µM): > 8.02; viability, T/C (second compound 0.0316 µM, first compound 0.00949 µM): 38.1%; viability, T/C (second compound 0.0316 µM, first compound 0.03 µM): 25.5%; viability, T/C (second compound 0.0316 µM, first compound 0.0949 µM): 22.9%; viability, T/C (second compound 0.0316 µM, first compound 0.3 µM): 18.4%; viability, T/C (second compound 0.0316 µM, first compound 0.949 µM): 16.6%; viability, T/C (second compound 0.0316 µM, first compound 3 µM): 17.7%; viability, T/C (second compound 0.1 µM, first compound 0.00949 µM): 50%; viability, T/C (second compound 0.1 µM, first compound 0.03 µM): 24.6%; viability, T/C (second compound 0.1 µM, first compound 0.0949 µM): 21.3%; viability, T/C (second compound 0.1 µM, first compound 0.3 µM): 17.4%; viability, T/C (second compound 0.1 µM, first compound 0.949 µM): 17.6%; viability, T/C (second compound 0.1 µM, first compound 3 µM): 19%; viability, T/C (second compound 0.316 µM, first compound 0.00949 µM): 42.3%; viability, T/C (second compound 0.316 µM, first compound 0.03 µM): 22.4%; viability, T/C (second compound 0.316 µM, first compound 0.0949 µM): 20.9%; viability, T/C (second compound 0.316 µM, first compound 0.3 µM): 19.1%; viability, T/C (second compound 0.316 µM, first compound 0.949 µM): 16.8%; viability, T/C (second compound 0.316 µM, first compound 3 µM): 14.8%; viability, T/C (second compound 1 µM, first compound 0.00949 µM): 41.1%; viability, T/C (second compound 1 µM, first compound 0.03 µM): 25%; viability, T/C (second compound 1 µM, first compound 0.0949 µM): 24.1%; viability, T/C (second compound 1 µM, first compound 0.3 µM): 26.1%; viability, T/C (second compound 1 µM, first compound 0.949 µM): 14%; viability, T/C (second compound 1 µM, first compound 3 µM): 16.6%; viability, T/C (second compound 3.16 µM, first compound 0.00949 µM): 30.2%; viability, T/C (second compound 3.16 µM, first compound 0.03 µM): 22.1%; viability, T/C (second compound 3.16 µM, first compound 0.0949 µM): 22.4%; viability, T/C (second compound 3.16 µM, first compound 0.3 µM): 20.2%; viability, T/C (second compound 3.16 µM, first compound 0.949 µM): 16.5%; viability, T/C (second compound 3.16 µM, first compound 3 µM): 15.1%; viability, T/C (second compound 10 µM, first compound 0.00949 µM): 36.9%; viability, T/C (second compound 10 µM, first compound 0.03 µM): 25%; viability, T/C (second compound 10 µM, first compound 0.0949 µM): 23.3%; viability, T/C (second compound 10 µM, first compound 0.3 µM): 18.4%; viability, T/C (second compound 10 µM, first compound 0.949 µM): 18.1%; viability, T/C (second compound 10 µM, first compound 3 µM): 21.6%

Question: Which results are given for COc1cc(C2c3cc4c(cc3C(OC3OC5COC(C)OC5C(O)C3O)C3COC(=O)C23)OCO4)cc(OC)c1O (stereo unspecified) + Nc1ccc(C#CCN(C(=O)Cc2ncc(C(F)(F)F)cc2C(F)(F)F)c2ccc(F)cc2)nn1?
Answer: pIC50 (second compound 0.0316 µM): 6.49; pIC50 (second compound 0.1 µM): 6.09; pIC50 (second compound 0.316 µM): 6.14; pIC50 (second compound 1 µM): 6.31; pIC50 (second compound 3.16 µM): 6.50; pIC50 (second compound 10 µM): 6.57; viability, T/C [1]: 106%; viability, T/C [2]: 83.9%; viability, T/C [3]: 46.2%; viability, T/C [4]: 45.8%; viability, T/C [5]: 41.9%; viability, T/C [6]: 24.9%; viability, T/C [7]: 107%; viability, T/C [8]: 92.4%; viability, T/C [9]: 57.6%; viability, T/C [10]: 51.3%; viability, T/C [11]: 36.4%; viability, T/C [12]: 27.7%; viability, T/C [13]: 108%; viability, T/C [14]: 87.8%; viability, T/C [15]: 65.4%; viability, T/C [16]: 42.3%; viability, T/C [17]: 35.9%; viability, T/C [18]: 26.4%; viability, T/C [19]: 98.4%; viability, T/C [20]: 86.3%; viability, T/C [21]: 56.5%; viability, T/C [22]: 37%; viability, T/C [23]: 36%; viability, T/C [24]: 24.8%; viability, T/C [25]: 94.7%; viability, T/C [26]: 67.5%; viability, T/C [27]: 48.6%; viability, T/C [28]: 37.9%; viability, T/C [29]: 38.3%; viability, T/C [30]: 24.4%; viability, T/C [31]: 83.4%; viability, T/C [32]: 64%; viability, T/C [33]: 49.8%; viability, T/C [34]: 34.3%; viability, T/C [35]: 32.3%; viability, T/C [36]: 30.9%

Question: With O=c1[nH]cc(F)c(=O)[nH]1 + Nc1ccc(C#CCN(C(=O)Cc2ncc(C(F)(F)F)cc2C(F)(F)F)c2ccc(F)cc2)nn1 as the molecule, how does the pIC50 (second compound 0.0316 µM) read?
Answer: The pIC50 was 6.32.

Question: And the pIC50 (second compound 0.1 µM)?
Answer: Its pIC50 is 6.29.

Question: And the pIC50 (second compound 0.316 µM)?
Answer: The pIC50 was 6.28.

Question: And the pIC50 (second compound 1 µM)?
Answer: Its pIC50 is 6.28.

Question: What about the pIC50 (second compound 3.16 µM) of the same molecule?
Answer: The pIC50 was 6.56.

Question: What about the pIC50 (second compound 10 µM) of the same molecule?
Answer: The pIC50 was 6.36.

Question: What about the viability, T/C [1] of the same molecule?
Answer: The viability, T/C was 101%.

Question: What about the viability, T/C [2] of the same molecule?
Answer: Its viability, T/C is 82.2%.

Question: And the viability, T/C [3]?
Answer: Its viability, T/C is 56.6%.

Question: What about the viability, T/C [4] of the same molecule?
Answer: Its viability, T/C is 38.9%.

Question: What about the viability, T/C [5] of the same molecule?
Answer: The viability, T/C was 35.9%.

Question: And the viability, T/C [6]?
Answer: The viability, T/C was 37.5%.

Question: What about the viability, T/C [7] of the same molecule?
Answer: Its viability, T/C is 93.3%.

Question: And the viability, T/C [8]?
Answer: The viability, T/C was 92.2%.

Question: What about the viability, T/C [9] of the same molecule?
Answer: The viability, T/C was 53.7%.

Question: And the viability, T/C [10]?
Answer: Its viability, T/C is 43.5%.

Question: What about the viability, T/C [11] of the same molecule?
Answer: The viability, T/C was 44.9%.

Question: What about the viability, T/C [12] of the same molecule?
Answer: The viability, T/C was 45.6%.

Question: And the viability, T/C [13]?
Answer: The viability, T/C was 103%.

Question: What about the viability, T/C [14] of the same molecule?
Answer: Its viability, T/C is 77.6%.

Question: And the viability, T/C [15]?
Answer: Its viability, T/C is 60.6%.

Question: And the viability, T/C [16]?
Answer: The viability, T/C was 35.6%.

Question: What about the viability, T/C [17] of the same molecule?
Answer: The viability, T/C was 42%.

Question: And the viability, T/C [18]?
Answer: The viability, T/C was 39.7%.

Question: What about the viability, T/C [19] of the same molecule?
Answer: The viability, T/C was 97.5%.

Question: And the viability, T/C [20]?
Answer: The viability, T/C was 89.7%.

Question: What about the viability, T/C [21] of the same molecule?
Answer: Its viability, T/C is 57.5%.

Question: What about the viability, T/C [22] of the same molecule?
Answer: Its viability, T/C is 40.7%.

Question: And the viability, T/C [23]?
Answer: The viability, T/C was 38.4%.

Question: And the viability, T/C [24]?
Answer: The viability, T/C was 39.7%.

Question: What about the viability, T/C [25] of the same molecule?
Answer: Its viability, T/C is 95.1%.

Question: What about the viability, T/C [26] of the same molecule?
Answer: Its viability, T/C is 90.5%.

Question: And the viability, T/C [27]?
Answer: Its viability, T/C is 44.8%.

Question: And the viability, T/C [28]?
Answer: The viability, T/C was 41.6%.

Question: And the viability, T/C [29]?
Answer: Its viability, T/C is 36.4%.

Question: What about the viability, T/C [30] of the same molecule?
Answer: Its viability, T/C is 37.5%.

Question: And the viability, T/C [31]?
Answer: Its viability, T/C is 91.1%.

Question: And the viability, T/C [32]?
Answer: The viability, T/C was 75.7%.

Question: And the viability, T/C [33]?
Answer: The viability, T/C was 55.5%.

Question: And the viability, T/C [34]?
Answer: Its viability, T/C is 38.2%.

Question: What about the viability, T/C [35] of the same molecule?
Answer: Its viability, T/C is 35.7%.

Question: What about the viability, T/C [36] of the same molecule?
Answer: Its viability, T/C is 37.6%.
